Numbers after ± are expanded uncertainties.
Test: xn = mol fraction of the nth substance listed
Conditions: 100 kPa, Liquid; for viscosity: Capillary tube (Ostwald / Ubbelohde) method

CCCCCCCCCO [nonan-1-ol] + CCO
Conditions	mass density, 283.15 K [kg/m3]	mass density, 293.15 K [kg/m3]	mass density, 298.15 K [kg/m3]	mass density, 303.15 K [kg/m3]	mass density, 313.15 K [kg/m3]	viscosity, 283.15 K [mPa·s]	viscosity, 293.15 K [mPa·s]	viscosity, 298.15 K [mPa·s]	viscosity, 303.15 K [mPa·s]	viscosity, 313.15 K [mPa·s]
x2 = 0	835 ± 1.3	828.1 ± 1.3	824.7 ± 1.3	821.3 ± 1.3	814.3 ± 1.4	17.44 ± 0.36	11.63 ± 0.24	9.519 ± 0.2	7.806 ± 0.16	5.668 ± 0.12
x2 = 0.0999	834.1 ± 1.2	827.2 ± 1.3	823.8 ± 1.3	820.3 ± 1.3	813.3 ± 1.3	14.81 ± 0.31	10.17 ± 0.21	8.427 ± 0.18	6.931 ± 0.14	5.108 ± 0.11
x2 = 0.2	832 ± 1.2	825.1 ± 1.3	821.6 ± 1.3	818.1 ± 1.3	811 ± 1.3	12.63 ± 0.26	8.712 ± 0.18	7.371 ± 0.15	6.145 ± 0.13	4.534 ± 0.095
x2 = 0.3002	830 ± 1.2	823.2 ± 1.3	819.7 ± 1.3	816.1 ± 1.3	809 ± 1.3	10.68 ± 0.22	7.431 ± 0.15	6.388 ± 0.13	5.34 ± 0.11	3.966 ± 0.083
x2 = 0.4001	827.9 ± 1.2	820.9 ± 1.3	817.3 ± 1.3	813.8 ± 1.3	806.5 ± 1.3	8.855 ± 0.18	6.275 ± 0.13	5.421 ± 0.11	4.577 ± 0.095	3.443 ± 0.072
x2 = 0.4999	825.3 ± 1.2	818.2 ± 1.3	814.5 ± 1.3	810.9 ± 1.3	803.6 ± 1.3	7.184 ± 0.15	5.234 ± 0.11	4.529 ± 0.094	3.845 ± 0.08	2.946 ± 0.061
x2 = 0.6001	822.9 ± 1.2	815.1 ± 1.3	811.4 ± 1.3	807.7 ± 1.3	800.8 ± 1.3	5.578 ± 0.12	4.243 ± 0.088	3.712 ± 0.077	3.169 ± 0.066	2.485 ± 0.052
x2 = 0.6997	818.3 ± 1.2	810.8 ± 1.3	807 ± 1.3	803.3 ± 1.3	795.6 ± 1.4	4.208 ± 0.087	3.319 ± 0.069	2.936 ± 0.061	2.536 ± 0.053	2.042 ± 0.042
x2 = 0.7975	815 ± 1.3	807.1 ± 1.3	803.3 ± 1.3	799.4 ± 1.3	791.1 ± 1.4	3.169 ± 0.066	2.478 ± 0.051	2.281 ± 0.047	1.961 ± 0.041	1.624 ± 0.034
x2 = 0.8998	809.5 ± 1.3	799.4 ± 1.3	795.3 ± 1.3	791.3 ± 1.4	783 ± 1.4	2.22 ± 0.046	1.696 ± 0.035	1.658 ± 0.034	1.415 ± 0.029	1.214 ± 0.025

CCCCCCCCO [octan-1-ol] + CCO
Conditions	mass density, 283.15 K [kg/m3]	mass density, 293.15 K [kg/m3]	mass density, 298.15 K [kg/m3]	mass density, 303.15 K [kg/m3]	mass density, 313.15 K [kg/m3]	viscosity, 283.15 K [mPa·s]	viscosity, 293.15 K [mPa·s]	viscosity, 298.15 K [mPa·s]	viscosity, 303.15 K [mPa·s]	viscosity, 313.15 K [mPa·s]
x2 = 0	832.1 ± 1.2	825.2 ± 1.2	821.9 ± 1.2	818.4 ± 1.3	811.4 ± 1.3	13.49 ± 0.28	9.016 ± 0.19	7.39 ± 0.15	6.306 ± 0.13	4.587 ± 0.095
x2 = 0.1001	831.8 ± 1.2	824.1 ± 1.2	821.3 ± 1.2	817.8 ± 1.3	810.7 ± 1.3	11.57 ± 0.24	7.998 ± 0.17	6.619 ± 0.14	5.68 ± 0.12	4.167 ± 0.087
x2 = 0.2001	829.4 ± 1.2	822.4 ± 1.2	818.9 ± 1.2	815.4 ± 1.3	808.3 ± 1.3	9.981 ± 0.2	6.997 ± 0.14	5.812 ± 0.12	5.045 ± 0.11	3.739 ± 0.078
x2 = 0.3003	827.3 ± 1.2	820.6 ± 1.2	817 ± 1.3	813.4 ± 1.3	806.2 ± 1.3	8.404 ± 0.17	6.004 ± 0.12	5.076 ± 0.11	4.422 ± 0.092	3.316 ± 0.069
x2 = 0.3999	825.4 ± 1.2	818.2 ± 1.2	814.7 ± 1.3	811.5 ± 1.3	803.7 ± 1.3	6.907 ± 0.14	5.04 ± 0.1	4.357 ± 0.09	3.732 ± 0.077	2.903 ± 0.06
x2 = 0.5004	822.6 ± 1.2	815.3 ± 1.3	811.7 ± 1.3	808.1 ± 1.3	800.7 ± 1.3	5.63 ± 0.12	4.177 ± 0.086	3.665 ± 0.076	3.22 ± 0.067	2.501 ± 0.052
x2 = 0.6006	820.1 ± 1.2	812.7 ± 1.3	809 ± 1.3	805.2 ± 1.3	797.7 ± 1.3	4.488 ± 0.093	3.427 ± 0.071	3.047 ± 0.063	2.677 ± 0.055	2.117 ± 0.044
x2 = 0.7	816.8 ± 1.2	809.3 ± 1.3	805.4 ± 1.3	801.7 ± 1.3	793.9 ± 1.4	3.543 ± 0.073	2.711 ± 0.056	2.445 ± 0.051	2.178 ± 0.045	1.771 ± 0.037
x2 = 0.7999	811.7 ± 1.3	803.9 ± 1.3	800 ± 1.3	796.1 ± 1.3	788.1 ± 1.4	2.714 ± 0.056	2.146 ± 0.044	1.958 ± 0.041	1.712 ± 0.036	1.4 ± 0.029
x2 = 0.8998	–	–	–	–	–	2.003 ± 0.042	1.593 ± 0.033	1.474 ± 0.031	1.328 ± 0.028	1.112 ± 0.023
x2 = 0.9001	805 ± 1.3	796.8 ± 1.3	792.7 ± 1.4	788.6 ± 1.4	780.4 ± 1.4	–	–	–	–	–

CCCCCO [pentan-1-ol] + CCO
Conditions	mass density, 283.15 K [kg/m3]	mass density, 293.15 K [kg/m3]	mass density, 298.15 K [kg/m3]	mass density, 303.15 K [kg/m3]	mass density, 313.15 K [kg/m3]	viscosity, 283.15 K [mPa·s]	viscosity, 293.15 K [mPa·s]	viscosity, 298.15 K [mPa·s]	viscosity, 303.15 K [mPa·s]	viscosity, 313.15 K [mPa·s]
x2 = 0	822.1 ± 1.3	814.7 ± 1.3	811.2 ± 1.3	807.5 ± 1.3	800 ± 1.4	5.417 ± 0.11	3.974 ± 0.083	3.441 ± 0.072	2.99 ± 0.062	2.263 ± 0.047
x2 = 0.1	820.6 ± 1.3	813.2 ± 1.3	810 ± 1.3	805.8 ± 1.3	798.3 ± 1.4	4.879 ± 0.1	3.595 ± 0.075	3.154 ± 0.066	2.741 ± 0.057	2.1 ± 0.044
x2 = 0.2	819.4 ± 1.3	812 ± 1.3	808.3 ± 1.3	804.6 ± 1.3	797 ± 1.4	4.379 ± 0.091	3.263 ± 0.068	2.874 ± 0.06	2.506 ± 0.052	1.931 ± 0.04
x2 = 0.2998	817.8 ± 1.3	810.3 ± 1.3	806.6 ± 1.3	802.8 ± 1.3	795.1 ± 1.4	3.892 ± 0.081	2.935 ± 0.061	2.587 ± 0.054	2.27 ± 0.047	1.771 ± 0.037
x2 = 0.3999	815.4 ± 1.3	807.8 ± 1.3	804.2 ± 1.3	800.2 ± 1.3	792.4 ± 1.4	3.404 ± 0.071	2.619 ± 0.054	2.324 ± 0.048	2.05 ± 0.043	1.61 ± 0.034
x2 = 0.4997	813.3 ± 1.3	805.6 ± 1.3	801.8 ± 1.3	797.9 ± 1.3	790 ± 1.4	2.966 ± 0.062	2.328 ± 0.048	2.07 ± 0.043	1.828 ± 0.038	1.452 ± 0.03
x2 = 0.6	811 ± 1.3	803.2 ± 1.3	799.6 ± 1.3	795.4 ± 1.4	787.4 ± 1.4	2.564 ± 0.053	2.04 ± 0.042	1.833 ± 0.038	1.628 ± 0.034	1.312 ± 0.027
x2 = 0.7	808.4 ± 1.3	800.5 ± 1.3	796.4 ± 1.3	792.5 ± 1.4	784.3 ± 1.4	2.234 ± 0.046	1.796 ± 0.037	1.631 ± 0.034	1.453 ± 0.03	1.179 ± 0.025
x2 = 0.8	805.3 ± 1.3	797.3 ± 1.3	793.7 ± 1.4	789.1 ± 1.4	780.8 ± 1.4	1.938 ± 0.04	1.583 ± 0.033	1.435 ± 0.03	1.285 ± 0.027	1.062 ± 0.022
x2 = 0.8999	802 ± 1.3	793.7 ± 1.3	790.4 ± 1.4	785.3 ± 1.4	776.8 ± 1.4	1.693 ± 0.035	1.381 ± 0.029	1.256 ± 0.026	1.141 ± 0.024	0.956 ± 0.02

Source: the NIST ThermoML archive (doi:10.1021/je400630f)
